Measured values published in US7696339B2, “Nucleic acid encoding monkey QRFP” (Banyu Pharmaceutical Co., Ltd., priority 2004, dated 2010).
Square brackets hold non-standard residues; d marks the D form. pGlu = O=C1CC[C@@H](C(=O)O)N1

Columns and labels:
Type in all cases: cell-based
[1] = test system: CHO cells transfected with the mock vector; assay: Intracellular calcium ion concentration change in CHO cells transfected with the mock vector
Procedure: (§1) CHO cells were transfected with pEF1/V5-HisB plasmid vector carrying the monkey GPR103 gene or human GPR103 gene obtained in Example 1 and the same vector without the insert (mock), and Geneticin (Invitrogen Corp.) was added to the medium to a final concentration of 2 mg/ml for selection of expressing cells. Next, the monkey or human GPR103 gene-expressing cells were singly cloned by the limiting dilution method and supplied for the following test. The monkey QRFP43 and QRFP26 synthesized by the method described in Example 6 were also supplied for the test.
(§2) After 24 hours of culturing, the cells were seeded in a 96-well poly-D-lysine coated black culture plate (Becton Dickinson) at 2.5×10^4 cells/well and cultured for two nights. […] Different concentrations of monkey QRFP43 or QRFP26 dissolved in the assay buffer were also set in the FLIPR, and then a sample was added to the cells and the change in intracellular calcium ion concentration-dependent fluorescence produced by irradiation with exciting light was measured.
(§3) Defining the change in fluorescence as the difference between the fluorescence immediately before addition of monkey QRFP43 or QRFP26 and the maximum value after addition, a Prism Version 4.00 (GraphPad) was used to graph the change in fluorescence due to each concentration of peptide (protein), and the 50% effective concentration was determined.

human GPR103 = biological target: T1, human GPR103 (Homo sapiens, UniProt Q96P65); assay: Intracellular calcium ion concentration increasing activity (FLIPR) in human GPR103 gene-expressing CHO cells; settings: Fluo4, read-out: 50% effective concentration, intracellular calcium ion concentration increasing activity
T1 construct: expressed in transfected cells; host or cells: CHO cells, Geneticin-selected, single clone by limiting dilution
T1 sequence (Q96P65 1-431): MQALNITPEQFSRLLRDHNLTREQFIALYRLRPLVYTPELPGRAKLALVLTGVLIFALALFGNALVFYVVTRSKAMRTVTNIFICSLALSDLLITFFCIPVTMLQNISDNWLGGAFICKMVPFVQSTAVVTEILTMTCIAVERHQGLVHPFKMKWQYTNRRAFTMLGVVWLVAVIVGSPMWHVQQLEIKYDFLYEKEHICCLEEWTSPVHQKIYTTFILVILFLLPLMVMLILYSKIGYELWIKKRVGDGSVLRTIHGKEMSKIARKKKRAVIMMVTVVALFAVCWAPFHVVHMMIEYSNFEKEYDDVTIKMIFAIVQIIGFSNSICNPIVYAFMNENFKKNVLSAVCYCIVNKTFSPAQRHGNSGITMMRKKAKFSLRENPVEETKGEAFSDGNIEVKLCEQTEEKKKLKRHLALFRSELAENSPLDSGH
Procedure: as §1, §2, §3

monkey GPR103 = assay: Intracellular calcium ion concentration increasing activity (FLIPR) in monkey GPR103 gene-expressing CHO cells; settings: Fluo4, read-out: 50% effective concentration, intracellular calcium ion concentration increasing activity
Procedure: as §1, §2, §3

Q: Which results are given for “H-ASGPLGNLAEELNGYSRKKGGFSFRF-NH2 [monkey QRFP26]”?
A: change in intracellular calcium ion concentration [1]: no change; EC50 (human GPR103): 1.7 nM; EC50 (monkey GPR103): 9.2 nM

Q: For “[pGlu]DEGSEADDFLPAGGVKASGPLGNLAEELNGYSRKKGGFSFRF-NH2 [monkey QRFP43]”, which “change in intracellular calcium ion concentration” value [1] is on record?
A: no change

Q: And the EC50 (human GPR103)?
A: 58 nM

Q: And the EC50 (monkey GPR103)?
A: 69 nM
